BigSolDB 2.1
Where a SMILES comes first, the peptide text is derived from it.

COC(=O)[C@H](Cc1ccccc1)NC(=O)[C@@H](N)CC(=O)O (H-Asp-Phe-OMe)
solubility (mole fraction)
Settings | in ethanol | in methanol | in water
278.15 K | 3.16e-05 | 0.000532 | 0.000338
283.15 K | 4.53e-05 | 0.000593 | 0.000408
288.15 K | 6.19e-05 | 0.000665 | 0.000483
293.15 K | 8.48e-05 | 0.00074 | 0.000581
298.15 K | 0.000113 | 0.000832 | 0.000701
303.15 K | 0.000144 | 0.000939 | 0.000836
308.15 K | 0.000187 | 0.00107 | 0.00102
313.15 K | 0.000236 | 0.0012 | 0.00123
318.15 K | 0.000291 | 0.00136 | 0.0015
323.15 K | 0.000347 | 0.00155 | 0.00182
328.15 K | 0.000418 | 0.00175 | 0.00224
333.15 K | 0.000493 | 0.002 | 0.00274
